In the supplement of paper PMC10307832:

Key:
Test in all cases: relative viability (nuclei count vs DMSO), 5 days (fraction); higher = more cells survive
NCI-H1755 = tested on: NCI-H1755
How it was run: (§1)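 Lung cancer cell lines were pin-tool dosed in 1536-well plates on the day after seeding, with either a lone drug or a fixed anchor-drug dose plus five library-drug doses (not always all listed) in √10 steps. Nuclei were counted on 4× images after 5 days. Relative viability is the ratio of treated-well to vehicle-well nuclei counts, with each value a median of duplicate plates.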

NCI-H1666 = tested on: NCI-H1666
How it was run: as §1

NCI-H2085 = tested on: NCI-H2085
How it was run: as §1

NCI-H358 = tested on: NCI-H358
How it was run: as §1

NCI-H3122 = tested on: NCI-H3122
How it was run: as §1

ChaGo-K-1 = tested on: ChaGo-K-1
How it was run: as §1

NCI-H1355 = tested on: NCI-H1355
How it was run: as §1

NCI-H441 = tested on: NCI-H441
How it was run: as §1

NCI-H2347 = tested on: NCI-H2347
How it was run: as §1

NCI-H1944 = tested on: NCI-H1944
How it was run: as §1

NCI-H838 = tested on: NCI-H838
How it was run: as §1

NCI-H520 = tested on: NCI-H520
How it was run: as §1

EKVX = tested on: EKVX
How it was run: as §1

LK-2 = tested on: LK-2
How it was run: as §1

NCI-H460 = tested on: NCI-H460
How it was run: as §1

NCI-H2228 = tested on: NCI-H2228
How it was run: as §1

SW 1573 = tested on: SW 1573
How it was run: as §1

NCI-H322M = tested on: NCI-H322M
How it was run: as §1

H3255 = tested on: H3255
How it was run: as §1

A-427 = tested on: A-427
How it was run: as §1

NCI-H650 = tested on: NCI-H650
How it was run: as §1

NCI-H596 = tested on: NCI-H596
How it was run: as §1

NCI-H1650 = tested on: NCI-H1650
How it was run: as §1

O=C(O)CCCCC(CCSCc1ccccc1)SCc1ccccc1 (centres undefined) [CPI-613] + CC(=O)Nc1cccc(-n2c(=O)n(C3CC3)c(=O)c3c(Nc4ccc(I)cc4F)n(C)c(=O)c(C)c32)c1 [Trametinib] (partner 0.02 µM)
relative viability (NCI-H1755; first compound 5 µM): 0.712
relative viability (NCI-H1755; first compound 15.81 µM): 0.775
relative viability (NCI-H1755; first compound 50 µM): 0.75
relative viability (NCI-H1755; first compound 158.11 µM): 0.702
relative viability (NCI-H1755; first compound 500 µM): 0.69
relative viability (NCI-H1666; first compound 5 µM): 0.888
relative viability (NCI-H1666; first compound 15.81 µM): 0.821
relative viability (NCI-H1666; first compound 50 µM): 0.796
relative viability (NCI-H1666; first compound 158.11 µM): 0.488
relative viability (NCI-H1666; first compound 500 µM): 0.394
relative viability (NCI-H2085; first compound 5 µM): 0.664
relative viability (NCI-H2085; first compound 15.81 µM): 0.555
relative viability (NCI-H2085; first compound 50 µM): 0.6
relative viability (NCI-H2085; first compound 158.11 µM): 0.216
relative viability (NCI-H2085; first compound 500 µM): 0.12
relative viability (NCI-H358; first compound 5 µM): 0.132
relative viability (NCI-H358; first compound 15.81 µM): 0.133
relative viability (NCI-H358; first compound 50 µM): 0.132
relative viability (NCI-H358; first compound 158.11 µM): 0.0921
relative viability (NCI-H358; first compound 500 µM): 0.0459
relative viability (NCI-H3122; first compound 5 µM): 0.232
relative viability (NCI-H3122; first compound 15.81 µM): 0.25
relative viability (NCI-H3122; first compound 50 µM): 0.295
relative viability (NCI-H3122; first compound 158.11 µM): 0.215
relative viability (NCI-H3122; first compound 500 µM): 0.227
relative viability (ChaGo-K-1; first compound 5 µM): 0.853
relative viability (ChaGo-K-1; first compound 15.81 µM): 0.876
relative viability (ChaGo-K-1; first compound 50 µM): 0.847
relative viability (ChaGo-K-1; first compound 158.11 µM): 0.29
relative viability (ChaGo-K-1; first compound 500 µM): 0.391
relative viability (NCI-H1355; first compound 5 µM): 0.44
relative viability (NCI-H1355; first compound 15.81 µM): 0.409
relative viability (NCI-H1355; first compound 50 µM): 0.42
relative viability (NCI-H1355; first compound 158.11 µM): 0.27
relative viability (NCI-H1355; first compound 500 µM): 0.112
relative viability (NCI-H441; first compound 5 µM): 0.426
relative viability (NCI-H441; first compound 15.81 µM): 0.429
relative viability (NCI-H441; first compound 50 µM): 0.343
relative viability (NCI-H441; first compound 158.11 µM): 0.322
relative viability (NCI-H441; first compound 500 µM): 0.003
relative viability (NCI-H2347; first compound 5 µM): 0.256
relative viability (NCI-H2347; first compound 15.81 µM): 0.232
relative viability (NCI-H2347; first compound 50 µM): 0.259
relative viability (NCI-H2347; first compound 158.11 µM): 0.22
relative viability (NCI-H2347; first compound 500 µM): 0.206
relative viability (NCI-H1944; first compound 5 µM): 0.427
relative viability (NCI-H1944; first compound 15.81 µM): 0.398
relative viability (NCI-H1944; first compound 50 µM): 0.412
relative viability (NCI-H1944; first compound 158.11 µM): 0.259
relative viability (NCI-H1944; first compound 500 µM): 0.28
relative viability (NCI-H838; first compound 5 µM): 0.514
relative viability (NCI-H838; first compound 15.81 µM): 0.461
relative viability (NCI-H838; first compound 50 µM): 0.468
relative viability (NCI-H838; first compound 158.11 µM): 0.232
relative viability (NCI-H838; first compound 500 µM): 0.065
relative viability (NCI-H520; first compound 5 µM): 0.691
relative viability (NCI-H520; first compound 15.81 µM): 0.708
relative viability (NCI-H520; first compound 50 µM): 0.552
relative viability (NCI-H520; first compound 158.11 µM): 0.16
relative viability (NCI-H520; first compound 500 µM): 0.0957
relative viability (EKVX; first compound 5 µM): 0.287
relative viability (EKVX; first compound 15.81 µM): 0.272
relative viability (EKVX; first compound 50 µM): 0.343
relative viability (EKVX; first compound 500 µM): 0.325
relative viability (LK-2; first compound 5 µM): 0.702
relative viability (LK-2; first compound 15.81 µM): 0.786
relative viability (LK-2; first compound 50 µM): 0.93
relative viability (LK-2; first compound 158.11 µM): 0.856
relative viability (LK-2; first compound 500 µM): 0.792
relative viability (NCI-H460; first compound 5 µM): 0.128
relative viability (NCI-H460; first compound 15.81 µM): 0.132
relative viability (NCI-H460; first compound 50 µM): 0.116
relative viability (NCI-H460; first compound 158.11 µM): 0.0278
relative viability (NCI-H460; first compound 500 µM): 0.0229
relative viability (NCI-H2228; first compound 5 µM): 0.549
relative viability (NCI-H2228; first compound 15.81 µM): 0.393
relative viability (NCI-H2228; first compound 50 µM): 0.343
relative viability (NCI-H2228; first compound 158.11 µM): 0.452
relative viability (NCI-H2228; first compound 500 µM): 0.052
relative viability (SW 1573; first compound 5 µM): 0.557
relative viability (SW 1573; first compound 15.81 µM): 0.433
relative viability (SW 1573; first compound 50 µM): 0.482
relative viability (SW 1573; first compound 158.11 µM): 0.133
relative viability (SW 1573; first compound 500 µM): 0.0735
relative viability (NCI-H322M; first compound 5 µM): 0.427
relative viability (NCI-H322M; first compound 15.81 µM): 0.485
relative viability (NCI-H322M; first compound 50 µM): 0.454
relative viability (NCI-H322M; first compound 158.11 µM): 0.516
relative viability (NCI-H322M; first compound 500 µM): 0.514
relative viability (H3255; first compound 5 µM): 0.61
relative viability (H3255; first compound 15.81 µM): 0.6
relative viability (H3255; first compound 50 µM): 0.654
relative viability (H3255; first compound 158.11 µM): 0.62
relative viability (H3255; first compound 500 µM): 0.598
relative viability (A-427; first compound 5 µM): 0.716
relative viability (A-427; first compound 15.81 µM): 0.766
relative viability (A-427; first compound 50 µM): 0.682
relative viability (A-427; first compound 158.11 µM): 0.476
relative viability (A-427; first compound 500 µM): 0.391
relative viability (NCI-H650; first compound 5 µM): 0.969
relative viability (NCI-H650; first compound 15.81 µM): 0.994
relative viability (NCI-H650; first compound 50 µM): 0.849
relative viability (NCI-H650; first compound 158.11 µM): 0.929
relative viability (NCI-H650; first compound 500 µM): 0.889
relative viability (NCI-H596; first compound 5 µM): 0.823
relative viability (NCI-H596; first compound 15.81 µM): 0.732
relative viability (NCI-H596; first compound 50 µM): 0.765
relative viability (NCI-H596; first compound 158.11 µM): 0.34
relative viability (NCI-H596; first compound 500 µM): 0.036
relative viability (NCI-H1650; first compound 5 µM): 0.546
relative viability (NCI-H1650; first compound 15.81 µM): 0.548
relative viability (NCI-H1650; first compound 50 µM): 0.537
relative viability (NCI-H1650; first compound 158.11 µM): 0.168
relative viability (NCI-H1650; first compound 500 µM): 0.0145
